Experimental data from patent US7737175B2, “Methods and compositions for regulating HDAC4 activity” (Duke University, priority 2007, dated 2010).

Assays:
HDAC4 [1] = biological target: T1, HDAC4 (Mus musculus, UniProt Q6NZM9); assay: muscle atrophy after surgical denervation of siRNA-electroporated tibialis anterior (fiber size, atrophy genes by RT-PCR); type: in vivo; set-up: HDAC4 siRNA results in more than 80% reduction in HDAC4; from tissue; host or cells: mouse tibialis anterior muscle, in vivo
Experimental: (§1) Mouse Procedures. Mice were anaesthetized with a Ketamine/Xylazine mixture (25 mg/ml Ketamine, 1 mg/ml Xylazine in 0.9% NaCl; 100 ul used per mouse. Hair was removed from area surrounding muscle. For denervation, sciatic nerve was exposed and ˜[…] piece of nerve was cut and removed. Incision was sutured and mice were allowed to recover. For overexpression electroporation analysis, 25 ug GFP, HDAC4-GFP, or HDAC4-3SA-GFP was used for injection. For siRNA experiments, 500 pmol siRNA oligo was used for injection. DNA or siRNA were directly injected into TA muscles using cemented MicroSyringe (VWR). ECM 830 electroporator (BTX) was used for all electroporations. Tweezertrodes (Model 520) were coated with transmission gel and were placed outside the skin around the muscle belly and pulsed 5 times at 50V, 60 ms duration, with 200 ms interval time. Mice were allowed to recover in their cages. Stealth siRNA duplexed oligos are from Invitrogen. Sequences are; mouse HDAC4: 5′ […] 3′ (SEQ ID NO:3), mouse HDAC5: 5′ […] 3′ (SEQ ID NO:4).
RNA analysis. For RNA analysis, TA muscles were dounce homogenized in 1 ml Tri reagent (MRC) and incubated at 4° C. overnight. 200 ul chloroform was added, and after vigorous shaking, samples were centrifuged at 12000 rpm for 10 min. Top aqueous layer was added to 500 ul isopropanol, mixed well, and centrifuged at 12000 rpm for 10 min. RNA pellet was washed with 70% ethanol, air-dried, and resuspended in DEPC water for RT-PCR analysis. For northern blotting, 10 ug total RNA was run on a 1% formaldehyde RNA gel. Gel was transferred onto Hybond N+ membrane and probed using radiolabeled fragments of HDAC4 or Atrogin-1 cDNA generated from Prime-it kit II (Stratagene). Blots were exposed for 2 hr at −80° C. For RT-PCR analysis, total RNA was DNase treated using DNA-free kit (Ambion), and 1 ug RNA was used for cDNA synthesis reaction using iScript cDNA Synthesis Kit (Biorad). Samples were diluted 1:50 and 5 ul cDNA was used per RT-PCR reaction. Real-time quantitative PCR was performed using iQ SYBER Green Supermix on the iCycler™ iQ Detection System (Biorad). Sample volume was 20 ul per reaction. Efficiency and specificity of primers were confirmed by standard PCR and DNA electrophoresis. RT-PCR Program on iCycler™ was 95° C. 15 sec, 60° C. 30 sec, 72° C. 30 sec. All real-time PCR values were normalized to either actin or 18S rRNA. RT-PCR primer sequences are as follows: G-actin: forward 5′-[…] 3′ (SEQ ID NO:5), reverse 5′ […] 3′ (SEQ ID NO:6); 18S: forward 5′ […] 3′ (SEQ ID NO:7), reverse 5′ […] 3′ (SEQ ID NO:8); Dach2: forward 5′-[…] 3′ (SEQ ID NO:9), reverse 5′ […] 3′ (SEQ ID NO:10); nAChRα: forward 5′ CGTCTGGTGGCAAAGCT 3′ (SEQ ID NO:11), reverse 5′-CCGCTCTCCATGAAGTT 3′ (SEQ ID NO:12); MGN: forward 5′-[…] […]
To establish a role for HDAC4 in muscle atrophy, scrambled control siRNA or HDAC4-specific siRNA were electroporated into tibialis anterior (TA) followed by denervation. […] The extent of muscle atrophy was then analyzed by measuring muscle fiber size and the induction of atrophy-specific genes, MuRF1 and atrogin 1, two E3 ligases essential for muscle atrophy. […]

HDAC4 [2] = biological target: T1, HDAC4; assay: PGC-1α and myoglobin expression in tibialis anterior electroporated with HDAC4-siRNA; type: in vivo; set-up: HDAC4 siRNA results in more than 80% reduction in HDAC4; from tissue; host or cells: mouse tibialis anterior muscle, in vivo; details: fast/glycolytic tibialis anterior muscle
Experimental: as §1
RNA analysis. For RNA analysis, TA muscles were dounce homogenized in 1 ml Tri reagent (MRC) and incubated at 4° C. overnight. 200 ul chloroform was added, and after vigorous shaking, samples were centrifuged at 12000 rpm for 10 min. […] Real-time quantitative PCR was performed using iQ SYBER Green Supermix on the iCycler™ iQ Detection System (Biorad). […]

HDAC4 [3] = biological target: T1, HDAC4; assay: in vivo siRNA knockdown in mouse tibialis muscle, denervation, RT-PCR of Dach2/MGN/nAChR; set-up: HDAC4 siRNA results in more than 80% reduction in HDAC4; from tissue; host or cells: mouse tibialis anterior muscle, in vivo; details: siRNA electroporated into tibialis, denervated 3 days
Experimental: as §1
RNA analysis. For RNA analysis, TA muscles were dounce homogenized in 1 ml Tri reagent (MRC) and incubated at 4° C. overnight. 200 ul chloroform was added, and after vigorous shaking, samples were centrifuged at 12000 rpm for 10 min. Top aqueous layer was added to 500 ul isopropanol, mixed well, and centrifuged at 12000 rpm for 10 min. RNA pellet was washed with 70% ethanol, air-dried, and resuspended in DEPC water for RT-PCR analysis. For northern blotting, 10 ug total RNA was run on a 1% formaldehyde RNA gel. Gel was transferred onto Hybond N+ membrane and probed using radiolabeled fragments of HDAC4 or Atrogin-1 cDNA generated from Prime-it kit II (Stratagene). Blots were exposed for 2 hr at −80° C. For RT-PCR analysis, total RNA was DNase treated using DNA-free kit (Ambion), and 1 ug RNA was used for cDNA synthesis reaction using iScript cDNA Synthesis Kit (Biorad). Samples were diluted 1:50 and 5 ul cDNA was used per RT-PCR reaction. Real-time quantitative PCR was performed using iQ SYBER Green Supermix on the iCycler™ iQ Detection System (Biorad). […]

HDAC4 [4] = biological target: T1, HDAC4; details: daily injection

T1 sequence (Q6NZM9 whole entry): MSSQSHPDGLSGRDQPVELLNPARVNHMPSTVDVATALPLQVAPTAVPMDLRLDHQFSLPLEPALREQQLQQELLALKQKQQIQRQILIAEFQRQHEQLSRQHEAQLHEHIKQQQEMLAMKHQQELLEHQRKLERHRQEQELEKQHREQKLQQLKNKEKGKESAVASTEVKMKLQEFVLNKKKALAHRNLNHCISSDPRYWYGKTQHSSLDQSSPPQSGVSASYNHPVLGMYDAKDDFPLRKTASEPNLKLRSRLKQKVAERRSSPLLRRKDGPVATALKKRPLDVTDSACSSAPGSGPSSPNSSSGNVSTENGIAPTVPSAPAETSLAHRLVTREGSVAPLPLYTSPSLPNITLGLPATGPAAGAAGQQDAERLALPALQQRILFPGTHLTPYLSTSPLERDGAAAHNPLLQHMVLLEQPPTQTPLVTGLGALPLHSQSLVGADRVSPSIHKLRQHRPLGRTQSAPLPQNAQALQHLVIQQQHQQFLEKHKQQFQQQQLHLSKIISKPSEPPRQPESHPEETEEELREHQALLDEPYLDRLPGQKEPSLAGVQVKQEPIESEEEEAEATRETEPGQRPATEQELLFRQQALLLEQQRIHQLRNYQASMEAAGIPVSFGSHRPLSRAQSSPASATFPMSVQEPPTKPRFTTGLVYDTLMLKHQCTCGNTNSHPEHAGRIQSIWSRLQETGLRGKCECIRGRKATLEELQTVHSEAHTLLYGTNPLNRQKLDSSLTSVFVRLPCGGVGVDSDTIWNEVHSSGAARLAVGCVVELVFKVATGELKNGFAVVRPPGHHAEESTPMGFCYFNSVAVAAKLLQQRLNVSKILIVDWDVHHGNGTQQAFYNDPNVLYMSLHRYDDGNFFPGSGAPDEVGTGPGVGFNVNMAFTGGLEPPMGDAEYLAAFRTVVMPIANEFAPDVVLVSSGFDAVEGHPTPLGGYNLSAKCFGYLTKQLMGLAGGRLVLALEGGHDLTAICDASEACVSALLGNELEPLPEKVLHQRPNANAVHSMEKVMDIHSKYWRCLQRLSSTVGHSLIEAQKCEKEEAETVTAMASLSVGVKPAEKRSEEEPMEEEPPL

Substance	atrogin 1 expression after denervation (HDAC4 [1]; RT-PCR)	induction of MuRF1 by denervation (HDAC4 [1]; RT-PCR)	atrophy (reduction in TA muscle size) after denervation (HDAC4 [1]; denervation for 12 days, versus control siRNA)	reduction in HDAC4 (HDAC4 [1]; siRNA electroporated into tibialis anterior)	size of individual fibers of denervated muscles (HDAC4 [1]; versus fibers that received control siRNA)	PGC-1α expression (HDAC4 [2])	myoglobin expression (HDAC4 [2])	induction of MGN after denervation (HDAC4 [3])	induction of nAChR after denervation (HDAC4 [3])	repression of Dach2 that occurs during denervation (HDAC4 [3]; 7 days after electroporation)	level of PGC-1α (HDAC4 [4])
5′ CACCGGAACCUGAACCACUGCAUUU 3′ (SEQ ID NO:3) [HDAC4 siRNA]	modestly affected	significantly inhibited	largely prevented	more than 80%	much larger	elevation	elevation	dramatically reduced	dramatically reduced	significantly alleviates	
Trichostatin A											increase
